Patent US7273848B2, “Apolipoprotein A-I agonists and their use to treat dyslipidemic disorders” (priority 1997, dated 2007)
Non-standard residues stand in square brackets, D forms with d. Residues, ends and D or L forms follow the SMILES beside them. No end group written: not given here. Orn = NCCC[C@H](N)C(=O)O; Aib = CC(C)(N)C(=O)O

The compounds below were run against T1, LCAT (purified from human plasma) (Homo sapiens, UniProt P04180) (assay: LCAT activation assay). Conditions: LCAT activation as compared with native human ApoA-I (= 100%), equivalent masses.
T1 construct: from tissue; host or cells: human plasma
T1 sequence (P04180 25-440): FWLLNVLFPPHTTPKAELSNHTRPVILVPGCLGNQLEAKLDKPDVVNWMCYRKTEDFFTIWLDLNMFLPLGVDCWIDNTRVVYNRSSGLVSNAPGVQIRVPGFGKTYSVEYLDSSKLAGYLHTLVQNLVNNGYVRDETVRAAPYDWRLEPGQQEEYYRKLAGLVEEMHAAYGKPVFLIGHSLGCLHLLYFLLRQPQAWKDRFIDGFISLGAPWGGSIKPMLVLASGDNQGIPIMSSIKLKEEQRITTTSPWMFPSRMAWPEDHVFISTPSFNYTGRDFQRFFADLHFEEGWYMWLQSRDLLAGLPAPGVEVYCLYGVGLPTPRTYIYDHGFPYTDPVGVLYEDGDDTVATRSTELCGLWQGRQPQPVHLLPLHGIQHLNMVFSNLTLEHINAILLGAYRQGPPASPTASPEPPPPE
Assay type: biochemical
Outline: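 Activity was expressed as percentage conversion of radiolabelled cholesterol to cholesteryl ester, normalised to native ApoA-I as 100%. LCAT purified from human plasma was added to peptide-preincubated EPC or POPC/cholesterol (20:1) small unilamellar vesicles at pH 7.4. Specific activity is the peptide concentration reaching the conversion plateau at a fixed timepoint.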

Row | Compound | ACTIVITY (%) LCAT [%]
1 | CC(C)C[C@H](NC(=O)[C@H](C)NC(=O)[C@H](CCC(=O)O)NC(=O)[C@H](CC(C)C)NC(=O)C(C)(C)NC(=O)[C@H](CCC(=O)O)NC(=O)[C@H](CC(N)=O)NC(=O)[C@H](CC(C)C)NC(=O)[C@H](CCCCN)NC(=O)[C@H](CCC(=O)O)NC(=O)[C@H](CCCNC(=N)N)NC(=O)[C@H](Cc1ccccc1)NC(=O)[C@H](CCC(=O)O)NC(=O)[C@H](CC(=O)O)NC(=O)[C@H](CC(C)C)NC(=O)[C@H](Cc1c[nH]c2ccccc12)NC(=O)[C@@H]1CCCN1)C(=O)N[C@@H](CCCCN)C(=O)N[C@@H](CCC(N)=O)C(=O)N[C@@H](CCCCN)C(=O)N[C@@H](CC(C)C)C(=O)N[C@@H](CCCCN)C(=O)O [compound 64, PWLDEFREKLNEXLEALKQKLK] (H-PWLDEFREKLNE[Aib]LEALKQKLK-OH) | 15
2 | CC(C)C[C@H](NC(=O)[C@H](C)NC(=O)[C@H](CCC(=O)O)NC(=O)C(C)(C)NC(=O)[C@H](CC(C)C)NC(=O)[C@H](CCC(=O)O)NC(=O)[C@H](CC(N)=O)NC(=O)[C@H](CC(C)C)NC(=O)[C@H](CCCCN)NC(=O)[C@H](CCC(=O)O)NC(=O)[C@H](CCCNC(=N)N)NC(=O)[C@H](Cc1ccccc1)NC(=O)[C@H](CCC(=O)O)NC(=O)[C@H](CC(=O)O)NC(=O)[C@H](CC(C)C)NC(=O)[C@@H](NC(=O)[C@@H]1CCCN1)C(C)C)C(=O)N[C@@H](CCCCN)C(=O)N[C@@H](CCC(N)=O)C(=O)N[C@@H](CCCCN)C(=O)N[C@@H](CC(C)C)C(=O)N[C@@H](CCCCN)C(=O)O [compound 71, PVLDEFREKLNELXEALKQKLK] (H-PVLDEFREKLNEL[Aib]EALKQKLK-OH) | 11
3 | PVLDLFRELLNELLEALKQKKK [compound 56] | 18
4 | CC(C)C[C@H](NC(=O)[C@H](C)NC(=O)[C@H](CCC(=O)O)NC(=O)[C@H](CC(C)C)NC(=O)C(C)(C)NC(=O)[C@H](CCC(=O)O)NC(=O)[C@H](CC(N)=O)NC(=O)[C@H](CC(C)C)NC(=O)[C@H](CCCCN)NC(=O)[C@H](CCC(=O)O)NC(=O)[C@H](CCCNC(=N)N)NC(=O)[C@H](Cc1ccccc1)NC(=O)[C@H](CCC(=O)O)NC(=O)[C@H](CC(=O)O)NC(=O)[C@H](CC(C)C)NC(=O)[C@@H](NC(=O)[C@@H]1CCCN1)C(C)C)C(=O)N[C@@H](CCC(=O)O)C(=O)N[C@@H](CCC(N)=O)C(=O)N[C@@H](CCCCN)C(=O)N[C@@H](CC(C)C)C(=O)N[C@@H](CCCCN)C(=O)O [compound 118, PVLDEFREKLNEXLEALEQKLK] (H-PVLDEFREKLNE[Aib]LEALEQKLK-OH) | 0
5 | CC(C)C[C@H](NC(=O)[C@H](C)NC(=O)[C@H](CC(=O)O)NC(=O)[C@H](CC(C)C)NC(=O)[C@H](CC(C)C)NC(=O)[C@H](CCCN)NC(=O)[C@H](CCC(=O)O)NC(=O)[C@H](CC(C)C)NC(=O)[C@H](CC(C)C)NC(=O)[C@H](CC(N)=O)NC(=O)[C@H](CCC(=O)O)NC(=O)[C@H](Cc1ccccc1)NC(=O)[C@H](CC(C)C)NC(=O)[C@H](CCC(=O)O)NC(=O)[C@H](CC(C)C)NC(=O)[C@@H](NC(=O)[C@@H]1CCCN1)C(C)C)C(=O)N[C@@H](CCC(N)=O)C(=O)N[C@@H](CCCN)C(=O)N[C@@H](CCCN)C(=O)N[C@@H](CC(C)C)C(=O)N[C@@H](CCCN)C(=O)O [compound 170, PVLELFENLLEOLLDALQOOLO] (H-PVLELFENLLE[Orn]LLDALQ[Orn][Orn]L[Orn]-OH) | 17
6 | PVLDLFRELLNELLEGLKQKLK [compound 22] | 54
7 | CC(C)C[C@H](NC(=O)[C@H](C)NC(=O)[C@H](CCC(=O)O)NC(=O)C(C)(C)NC(=O)C(C)(C)NC(=O)[C@H](CCC(=O)O)NC(=O)[C@H](CC(N)=O)NC(=O)[C@H](CC(C)C)NC(=O)[C@H](CCCCN)NC(=O)[C@H](CCC(=O)O)NC(=O)[C@H](CCCNC(=N)N)NC(=O)[C@H](Cc1ccccc1)NC(=O)[C@H](CCC(=O)O)NC(=O)[C@H](CC(=O)O)NC(=O)[C@H](CC(C)C)NC(=O)[C@@H](NC(=O)[C@@H]1CCCN1)C(C)C)C(=O)N[C@@H](CCCCN)C(=O)N[C@@H](CCC(N)=O)C(=O)N[C@@H](CCCCN)C(=O)N[C@@H](CC(C)C)C(=O)N[C@@H](CCCCN)C(=O)O [compound 110, PVLDEFREKLNEXXEALKQKLK] (H-PVLDEFREKLNE[Aib][Aib]EALKQKLK-OH) | 0
8 | Ac-NVLDLFRELLEELKQKLK-NH2 [compound 200] | 75
9 | CSCC[C@H](NC(=O)C(C)(C)NC(=O)[C@H](CCC(=O)O)NC(=O)[C@H](CC(N)=O)NC(=O)[C@H](CC(C)C)NC(=O)[C@H](CCCCN)NC(=O)[C@H](CCC(=O)O)NC(=O)[C@H](CCCNC(=N)N)NC(=O)[C@H](Cc1ccccc1)NC(=O)[C@H](CCC(=O)O)NC(=O)[C@H](CC(=O)O)NC(=O)[C@H](CC(C)C)NC(=O)[C@@H](NC(=O)[C@@H]1CCCN1)C(C)C)C(=O)N[C@@H](CCC(=O)O)C(=O)N[C@@H](C)C(=O)N[C@@H](CC(C)C)C(=O)N[C@@H](CCCCN)C(=O)N[C@@H](CCC(N)=O)C(=O)N[C@@H](CCCCN)C(=O)N[C@@H](CC(C)C)C(=O)N[C@@H](CCCCN)C(=O)O [compound 114, PVLDEFREKLNEXMEALKQKLK] (H-PVLDEFREKLNE[Aib]MEALKQKLK-OH) | 0
10 | PVLDLFRNLLEELLKALEQKLK [compound 57] | 18
11 | CC(C)C[C@H](NC(=O)[C@H](C)NC(=O)[C@H](CCC(=O)O)NC(=O)[C@H](CC(C)C)NC(=O)C(C)(C)NC(=O)[C@H](CCC(=O)O)NC(=O)[C@H](CC(N)=O)NC(=O)[C@H](CC(C)C)NC(=O)[C@H](CCCCN)NC(=O)[C@H](CCC(=O)O)NC(=O)[C@H](CCCNC(=N)N)NC(=O)[C@H](Cc1ccccc1)NC(=O)[C@H](CCC(=O)O)NC(=O)[C@H](CC(=O)O)NC(=O)[C@H](Cc1c[nH]c2ccccc12)NC(=O)[C@@H](NC(=O)[C@@H]1CCCN1)C(C)C)C(=O)N[C@@H](CCCCN)C(=O)N[C@@H](CCC(N)=O)C(=O)N[C@@H](CCCCN)C(=O)N[C@@H](CC(C)C)C(=O)N[C@@H](CCCCN)C(=O)O [compound 52, PVWDEFREKLNEXLEALKQKLK] (H-PVWDEFREKLNE[Aib]LEALKQKLK-OH) | 20
12 | Ac-PVLELLKELLEELKQKLK-NH2 [compound 207] | 50
13 | CC(C)C[C@H](NC(=O)[C@H](C)NC(=O)[C@H](CCC(=O)O)NC(=O)[C@H](CC(C)C)NC(=O)C(C)(C)NC(=O)[C@H](CCC(=O)O)NC(=O)[C@H](CC(N)=O)NC(=O)[C@H](CC(C)C)NC(=O)[C@H](CCCCN)NC(=O)[C@H](CCC(=O)O)NC(=O)[C@H](Cc1c[nH]c2ccccc12)NC(=O)[C@H](Cc1ccccc1)NC(=O)[C@H](CCC(=O)O)NC(=O)[C@H](CC(=O)O)NC(=O)[C@H](CC(C)C)NC(=O)[C@@H](NC(=O)[C@@H]1CCCN1)C(C)C)C(=O)N[C@@H](CCCCN)C(=O)N[C@@H](CCC(N)=O)C(=O)N[C@@H](CCCCN)C(=O)N[C@@H](CC(C)C)C(=O)N[C@@H](CCCCN)C(=O)O [compound 73, PVLDEFWEKLNEXLEALKQKLK] (H-PVLDEFWEKLNE[Aib]LEALKQKLK-OH) | 10

Further lines, results first:

Row | ACTIVITY (%) LCAT [%] | Compound
14 | 16 | PVLELFENLLEKLLDLLQKKLK [compound 171]
15 | 0 | Ac-PVLDLFRELGEELKQKLK-NH2 [compound 227]
16 | 1 | PVLDAFRELAEALAQLKK [compound 225]
17 | 54 | PLLELFKELLQELLEALKQKLK [peptide 23]
18 | 29 | Ac-PVLDLFRELLNELLQKLK-NH2 [compound 218]
19 | 9 | PVLELFDNLLEKLLEALQKKLR [compound 178]
20 | 8 | PVLDAFRELLEALLQLKK [compound 222]
21 | 0 | PVLDEFREKLNEELEWLKQKLK [compound 122]
22 | 0 | Ac-PVLDLFRELLEEGKQKLK-NH2 [compound 229]
23 | 43 | CC(=O)N1CCC[C@H]1C(=O)N[C@H](C(=O)N[C@@H](CC(C)C)C(=O)N[C@@H](CC(=O)O)C(=O)N[C@@H](CC(C)C)C(=O)N[C@@H](Cc1ccccc1)C(=O)N[C@@H](CCCN)C(=O)N[C@@H](CCC(=O)O)C(=O)N[C@@H](CC(C)C)C(=O)N[C@@H](CC(C)C)C(=O)N[C@@H](CCC(=O)O)C(=O)N[C@@H](CCC(=O)O)C(=O)N[C@@H](CC(C)C)C(=O)N[C@@H](CCCN)C(=O)N[C@@H](CCC(N)=O)C(=O)N[C@@H](CCCN)C(=O)N[C@@H](CC(C)C)C(=O)N[C@@H](CCCCN)C(N)=O)C(C)C [compound 212, PVLDLFOELLEELOQOLK] (Ac-PVLDLF[Orn]ELLEEL[Orn]Q[Orn]LK-NH2)
24 | 105 | GVLDLFRELLNELLEALKQKLKK [peptide 2]
25 | 45 | CC(=O)N1CCC[C@H]1C(=O)N[C@H](C(=O)N[C@@H](CC(C)C)C(=O)N[C@@H](CC(=O)O)C(=O)N[C@@H](CC(C)C)C(=O)N[C@@H](Cc1ccccc1)C(=O)N[C@@H](CCCNC(=N)N)C(=O)N[C@@H](CCC(=O)O)C(=O)N[C@@H](CC(C)C)C(=O)N[C@@H](CC(C)C)C(=O)N[C@@H](CCC(=O)O)C(=O)N[C@@H](CCC(=O)O)C(=O)N[C@@H](CC(C)C)C(=O)N[C@@H](CCCN)C(=O)N[C@@H](CCC(N)=O)C(=O)N[C@@H](CCCN)C(=O)N[C@@H](CC(C)C)C(=O)N[C@@H](CCCN)C(N)=O)C(C)C [compound 211, PVLDLFRELLEELOQOLO] (Ac-PVLDLFRELLEEL[Orn]Q[Orn]L[Orn]-NH2)
26 | 10 | GVLELFLNLLERLLDALQKKLK [compound 177]
27 | 60 | Ac-PVLDLFREWLEELKQKLK-NH2 [compound 205]
28 | 28 | PVLDLFENLLERLLDALQKKLK [compound 159]
